Assay [1] has as its target Photoreceptor-specific nuclear receptor (Homo sapiens, UniProt Q9Y5X4). The assay is classed as functional, cell-based.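 Note: CHO-S cells with Gal4-NCOR and VP16-NR2E3 two-hybrid luciferase reporter.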
A short description of assay [2]: cells. The format is functional, cell-based.
The target of the next assay is Beta-galactosidase (Escherichia coli, UniProt Q8VNN2). Briefly: PubChem AID 485352. The format is functional.
Assay [3] addresses T1, Type-1 angiotensin II receptor (Homo sapiens, UniProt P30556).
T1 sequence (P30556 whole entry): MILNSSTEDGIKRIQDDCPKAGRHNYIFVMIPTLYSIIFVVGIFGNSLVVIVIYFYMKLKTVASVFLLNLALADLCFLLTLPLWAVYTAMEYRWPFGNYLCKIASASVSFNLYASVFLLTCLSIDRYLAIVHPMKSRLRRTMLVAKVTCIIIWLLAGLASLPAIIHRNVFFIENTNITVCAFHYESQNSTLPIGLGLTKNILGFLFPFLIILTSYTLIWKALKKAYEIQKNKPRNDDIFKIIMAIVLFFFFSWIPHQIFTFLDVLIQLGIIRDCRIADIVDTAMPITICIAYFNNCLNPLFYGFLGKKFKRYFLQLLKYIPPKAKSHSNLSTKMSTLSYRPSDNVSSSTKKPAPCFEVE
Nature of the assay: antagonism of angiotensin II type 1 receptor – cell-based, uHTS hits, selectivity assay for APJ receptor antagonist project, dose response (AID 463214).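 Note: antagonist potency against angiotensin II stimulated AT1 response.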 The assay is classed as functional.

A short description of assay [4]: cells. The format is functional, cell-based. The source holds these as a separate data set.
Assay [5] has as its target T2, Microphthalmia-associated transcription factor (Homo sapiens, UniProt O75030).
T2 sequence (O75030 whole entry): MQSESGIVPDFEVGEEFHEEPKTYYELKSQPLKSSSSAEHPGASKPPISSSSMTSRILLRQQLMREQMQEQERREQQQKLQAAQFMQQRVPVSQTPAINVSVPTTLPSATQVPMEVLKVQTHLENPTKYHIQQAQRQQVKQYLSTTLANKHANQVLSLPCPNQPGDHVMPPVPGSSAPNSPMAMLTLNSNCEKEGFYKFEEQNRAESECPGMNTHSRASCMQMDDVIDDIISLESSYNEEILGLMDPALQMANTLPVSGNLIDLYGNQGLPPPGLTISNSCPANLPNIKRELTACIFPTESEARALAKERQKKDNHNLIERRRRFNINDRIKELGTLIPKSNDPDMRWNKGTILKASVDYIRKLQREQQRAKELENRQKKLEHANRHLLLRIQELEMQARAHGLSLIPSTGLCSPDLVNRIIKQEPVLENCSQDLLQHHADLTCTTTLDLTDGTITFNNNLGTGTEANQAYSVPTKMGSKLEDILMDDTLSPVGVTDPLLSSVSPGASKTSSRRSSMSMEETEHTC
Briefly: reducers of TRPM1 reporter luminescence, concentration series – cell-based, SK-MEL-5, cherry-picked, set 3, MITF inhibitor project, dose response (AID 493073).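 Note: SK-MEL-5 melanoma cells with luciferase driven by the MITF target TRPM1 promoter.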 The assay is classed as functional.

The next assay relates to CHO. Briefly: CHO cell viability loss, potency – luminescence, cytotoxicity control for TLR9-MyD88 binding inhibitor project, dose response (AID 588339).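 Note: CHO cells stably coexpressing TLR9 and MyD88 fusions from primary screen; compound exposure lasted 48 hours before viability readout.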 The assay is classed as functional, cell-based, hamster. The conditions noted are these: Cricetulus griseus.
Assay [6] addresses T3, Beta Lactamase (Pseudomonas aeruginosa, UniProt Q932Y6). Briefly: BLA reporter interference, concentration series – BLA reporter cells, FRET fluorescence, artefact control for TLR9-MyD88 binding inhibitor project, dose response (AID 588341).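 Note: cell based assay in CHO-K1 cells stably expressing beta-lactamase.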 The format is cell-based.
The nature of assay [7]: Fluorescence-based cell-based high throughput dose response assay for inhibitors of the interaction of nucleotide-binding oligomerization domain containing 2 (NOD2) and the receptor-interacting serine-threonine kinase 2 (RIPK2). The assay is classed as functional. To be noted: Homo sapiens.
The target of assay [8] is T3, Beta Lactamase. Briefly: BLA reporter interference, concentration series – BLA reporter cells, FRET fluorescence, artefact control for NOD2-RIPK2 interaction inhibitor project, dose response (AID 651552). The assay is classed as functional, cell-based.
Assay [9] has as its target T4, ATP-dependent translocase ABCB1 (Homo sapiens, UniProt P08183). Briefly: inhibition of BCRP-mediated JC-1 efflux – Ig-MXP3 cells, flow cytometry, set 2, dose response (AID 504566).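 Note: flow cytometry median green fluorescence of retained JC-1 dye; potency of efflux pump inhibition measured as rising substrate retention.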 The assay is classed as functional. To be noted: read-out: EC50_MICROM_.
Assay [10] has as its target T4, ATP-dependent translocase ABCB1. Briefly: P-gp JC-1 efflux blockade concentration-response – Jurkat-DNR cells, flow cytometry, set 2, dose response (AID 504569).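 Note: potency of pump inhibitors that raise cellular JC-1 green fluorescence up to the nicardipine level.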 The assay is classed as functional. The conditions noted are these: read-out: EC50_MICROM_.
In assay [11] the target is T5, Heat shock factor protein 1 (Mus musculus, UniProt P38532).
T5 sequence (P38532 whole entry): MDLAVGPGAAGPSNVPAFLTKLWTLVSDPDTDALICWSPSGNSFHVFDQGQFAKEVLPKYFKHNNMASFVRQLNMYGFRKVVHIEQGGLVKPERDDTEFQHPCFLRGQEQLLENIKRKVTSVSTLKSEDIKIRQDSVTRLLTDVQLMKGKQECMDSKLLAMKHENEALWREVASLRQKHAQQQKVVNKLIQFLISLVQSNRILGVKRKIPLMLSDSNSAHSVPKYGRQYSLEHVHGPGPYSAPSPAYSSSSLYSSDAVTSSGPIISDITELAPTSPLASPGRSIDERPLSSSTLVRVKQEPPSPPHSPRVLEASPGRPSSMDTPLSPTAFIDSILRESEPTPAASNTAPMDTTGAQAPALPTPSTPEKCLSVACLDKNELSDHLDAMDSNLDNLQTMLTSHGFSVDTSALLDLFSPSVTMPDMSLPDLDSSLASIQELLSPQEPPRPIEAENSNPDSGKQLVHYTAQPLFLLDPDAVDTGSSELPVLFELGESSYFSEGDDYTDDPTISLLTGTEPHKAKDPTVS
Nature of the assay: decrease of HSF1-responsive luciferase luminescence – cell-based, NIH3T3, dose retest, confirmation (AID 2382).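 Note: NIH3T3 fibroblasts with HSF1-driven luciferase reporter stressed by proteasome inhibitor MG132; luminescence from HSF1-driven luciferase expression after 8 hours of MG132 stress.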 The format is functional.

Assay [12] addresses T6, Corticotropin-releasing factor receptor 2/Corticotropin-releasing factor-binding protein (Homo sapiens, UniProt P24387+Q13324).
T6 sequence (Q13324 whole entry): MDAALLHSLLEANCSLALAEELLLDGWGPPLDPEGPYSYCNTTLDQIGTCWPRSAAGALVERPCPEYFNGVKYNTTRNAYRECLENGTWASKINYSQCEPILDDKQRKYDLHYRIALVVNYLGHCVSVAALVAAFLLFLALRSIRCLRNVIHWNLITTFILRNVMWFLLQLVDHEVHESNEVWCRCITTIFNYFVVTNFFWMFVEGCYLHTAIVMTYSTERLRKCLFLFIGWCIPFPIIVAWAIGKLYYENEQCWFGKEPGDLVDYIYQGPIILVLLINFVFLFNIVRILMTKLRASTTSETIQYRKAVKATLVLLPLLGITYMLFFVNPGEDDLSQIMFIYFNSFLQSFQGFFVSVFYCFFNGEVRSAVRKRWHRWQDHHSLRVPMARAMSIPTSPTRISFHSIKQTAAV
T6 sequence (P24387 whole entry): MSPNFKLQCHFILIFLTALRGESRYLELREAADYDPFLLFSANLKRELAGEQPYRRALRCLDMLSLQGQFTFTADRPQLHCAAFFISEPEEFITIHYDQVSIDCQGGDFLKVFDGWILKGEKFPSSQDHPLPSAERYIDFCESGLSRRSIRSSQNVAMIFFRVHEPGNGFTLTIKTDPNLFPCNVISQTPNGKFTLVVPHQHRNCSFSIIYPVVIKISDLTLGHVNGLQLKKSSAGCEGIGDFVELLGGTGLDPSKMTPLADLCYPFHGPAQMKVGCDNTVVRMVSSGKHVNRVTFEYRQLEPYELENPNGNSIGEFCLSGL
Briefly: Dose Response confirmation of uHTS hits for small molecule antagonists of the CRF-binding protein and CRF-R2 receptor complex. The assay is classed as functional. To be noted: read-out: IC50_Mean.

Assay [13] deals with T6, Corticotropin-releasing factor receptor 2/Corticotropin-releasing factor-binding protein. Nature of the assay: activators of CRF receptor 2 with binding protein – uHTS hits, confirmation (AID 602473). The format is functional. The conditions noted are these: read-out: EC50_Mean.
Assay [14] can be described thus: blockers of CRF-binding protein–CRF-R2 complex – cell-based, uHTS hits, 384-well, dose response (AID 651639). The assay is classed as functional, Homo sapiens. To be noted: read-out: IC50_Mean.
Assay [15] concerns the target T7, Methionyl-tRNA synthetase, putative (Trypanosoma brucei brucei, UniProt Q38C91). The format is functional, Trypanosoma brucei brucei strain 927/4 GUTat10.1.
A short description of assay [16]: Counterscreen for inhibitors of Trypanosoma brucei methionyl tRNA synthetase (MetRS): Luminescence-based cell-based high throughput dose response assay to identify compounds that are cytotoxic to Jurkat human T lymphocyte cells. The assay is classed as functional.
In assay [17] the target is T7, Methionyl-tRNA synthetase, putative. The format is functional, Trypanosoma brucei brucei strain 927/4 GUTat10.1. The source holds these as a separate data set.

Experimental findings from ChEMBL document CHEMBL1201862, “PubChem BioAssay data set” (2004) are described below.

Active and inactive are the calls of the source. A value given as a limit tells only on which side of the number the result lay.

T4 sequence (P08183 whole entry): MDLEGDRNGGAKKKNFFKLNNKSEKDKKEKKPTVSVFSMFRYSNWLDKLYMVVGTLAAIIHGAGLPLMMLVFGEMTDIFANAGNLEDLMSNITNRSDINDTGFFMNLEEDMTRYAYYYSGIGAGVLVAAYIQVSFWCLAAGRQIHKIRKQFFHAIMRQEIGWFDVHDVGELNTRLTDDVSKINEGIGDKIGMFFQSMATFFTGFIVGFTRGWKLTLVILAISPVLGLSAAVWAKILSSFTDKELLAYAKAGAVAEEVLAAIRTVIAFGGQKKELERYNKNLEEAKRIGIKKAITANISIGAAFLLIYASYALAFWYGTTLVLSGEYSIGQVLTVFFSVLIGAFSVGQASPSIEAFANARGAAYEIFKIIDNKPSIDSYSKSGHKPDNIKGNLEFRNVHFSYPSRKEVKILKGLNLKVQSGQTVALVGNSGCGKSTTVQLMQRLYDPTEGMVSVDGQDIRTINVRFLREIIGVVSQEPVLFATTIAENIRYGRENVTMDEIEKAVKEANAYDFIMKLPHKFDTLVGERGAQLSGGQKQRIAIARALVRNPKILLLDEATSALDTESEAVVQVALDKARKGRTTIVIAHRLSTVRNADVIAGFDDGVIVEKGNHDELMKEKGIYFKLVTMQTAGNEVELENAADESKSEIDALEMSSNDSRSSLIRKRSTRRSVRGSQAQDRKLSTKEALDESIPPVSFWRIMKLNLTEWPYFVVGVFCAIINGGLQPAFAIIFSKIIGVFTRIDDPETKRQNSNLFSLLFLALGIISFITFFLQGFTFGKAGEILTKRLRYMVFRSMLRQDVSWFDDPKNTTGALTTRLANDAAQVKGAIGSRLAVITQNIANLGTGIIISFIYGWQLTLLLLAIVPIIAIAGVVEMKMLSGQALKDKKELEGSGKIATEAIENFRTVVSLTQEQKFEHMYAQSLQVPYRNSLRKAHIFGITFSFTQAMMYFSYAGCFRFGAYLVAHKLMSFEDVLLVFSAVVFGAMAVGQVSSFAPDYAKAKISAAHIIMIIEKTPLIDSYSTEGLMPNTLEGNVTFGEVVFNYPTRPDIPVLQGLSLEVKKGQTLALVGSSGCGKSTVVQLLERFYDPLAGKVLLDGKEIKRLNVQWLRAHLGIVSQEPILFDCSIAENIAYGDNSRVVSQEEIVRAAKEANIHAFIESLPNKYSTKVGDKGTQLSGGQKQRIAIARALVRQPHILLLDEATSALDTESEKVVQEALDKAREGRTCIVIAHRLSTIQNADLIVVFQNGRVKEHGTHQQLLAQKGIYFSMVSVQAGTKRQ
T3 sequence (Q932Y6 whole entry, the tested form may be a part): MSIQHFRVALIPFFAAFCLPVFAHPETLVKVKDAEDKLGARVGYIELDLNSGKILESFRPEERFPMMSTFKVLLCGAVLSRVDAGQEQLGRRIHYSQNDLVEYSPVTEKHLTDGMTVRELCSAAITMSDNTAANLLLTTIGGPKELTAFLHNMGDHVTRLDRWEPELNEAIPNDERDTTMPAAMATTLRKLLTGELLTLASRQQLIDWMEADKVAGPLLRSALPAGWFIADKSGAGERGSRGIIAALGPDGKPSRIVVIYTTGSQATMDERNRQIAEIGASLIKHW
T7 sequence (Q38C91 whole entry): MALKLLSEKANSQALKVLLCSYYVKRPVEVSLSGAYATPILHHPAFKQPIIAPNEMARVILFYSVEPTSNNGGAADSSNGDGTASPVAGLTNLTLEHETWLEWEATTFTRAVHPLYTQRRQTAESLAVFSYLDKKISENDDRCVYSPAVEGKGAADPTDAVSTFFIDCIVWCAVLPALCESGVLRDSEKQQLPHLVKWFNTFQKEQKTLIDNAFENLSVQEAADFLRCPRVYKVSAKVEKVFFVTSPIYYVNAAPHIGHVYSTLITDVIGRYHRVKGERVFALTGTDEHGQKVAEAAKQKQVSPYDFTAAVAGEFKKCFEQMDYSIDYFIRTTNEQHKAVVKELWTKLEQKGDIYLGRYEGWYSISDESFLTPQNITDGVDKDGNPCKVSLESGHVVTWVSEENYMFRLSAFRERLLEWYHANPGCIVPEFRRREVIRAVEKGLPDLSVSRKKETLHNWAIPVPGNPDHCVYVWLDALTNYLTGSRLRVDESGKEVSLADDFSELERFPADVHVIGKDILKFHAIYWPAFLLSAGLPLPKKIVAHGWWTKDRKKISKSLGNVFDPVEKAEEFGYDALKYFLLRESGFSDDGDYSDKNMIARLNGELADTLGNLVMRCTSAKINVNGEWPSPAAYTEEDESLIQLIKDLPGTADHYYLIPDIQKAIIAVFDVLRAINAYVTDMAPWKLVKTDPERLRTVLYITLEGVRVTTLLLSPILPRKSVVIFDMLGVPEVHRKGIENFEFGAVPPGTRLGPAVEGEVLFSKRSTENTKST
Photoreceptor-specific nuclear receptor, sequence (Q9Y5X4 whole entry, the tested form may be a part): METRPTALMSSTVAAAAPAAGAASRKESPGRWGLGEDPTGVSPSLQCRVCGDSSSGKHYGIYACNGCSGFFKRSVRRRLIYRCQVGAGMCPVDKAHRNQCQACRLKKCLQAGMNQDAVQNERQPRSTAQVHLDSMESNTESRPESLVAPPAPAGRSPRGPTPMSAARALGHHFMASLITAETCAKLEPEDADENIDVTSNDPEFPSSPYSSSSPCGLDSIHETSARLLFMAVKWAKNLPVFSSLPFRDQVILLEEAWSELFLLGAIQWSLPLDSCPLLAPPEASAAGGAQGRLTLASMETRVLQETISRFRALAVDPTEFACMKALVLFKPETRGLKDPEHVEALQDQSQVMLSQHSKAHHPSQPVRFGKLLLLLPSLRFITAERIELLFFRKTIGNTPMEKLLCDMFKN
Beta-galactosidase, sequence (Q8VNN2 whole entry): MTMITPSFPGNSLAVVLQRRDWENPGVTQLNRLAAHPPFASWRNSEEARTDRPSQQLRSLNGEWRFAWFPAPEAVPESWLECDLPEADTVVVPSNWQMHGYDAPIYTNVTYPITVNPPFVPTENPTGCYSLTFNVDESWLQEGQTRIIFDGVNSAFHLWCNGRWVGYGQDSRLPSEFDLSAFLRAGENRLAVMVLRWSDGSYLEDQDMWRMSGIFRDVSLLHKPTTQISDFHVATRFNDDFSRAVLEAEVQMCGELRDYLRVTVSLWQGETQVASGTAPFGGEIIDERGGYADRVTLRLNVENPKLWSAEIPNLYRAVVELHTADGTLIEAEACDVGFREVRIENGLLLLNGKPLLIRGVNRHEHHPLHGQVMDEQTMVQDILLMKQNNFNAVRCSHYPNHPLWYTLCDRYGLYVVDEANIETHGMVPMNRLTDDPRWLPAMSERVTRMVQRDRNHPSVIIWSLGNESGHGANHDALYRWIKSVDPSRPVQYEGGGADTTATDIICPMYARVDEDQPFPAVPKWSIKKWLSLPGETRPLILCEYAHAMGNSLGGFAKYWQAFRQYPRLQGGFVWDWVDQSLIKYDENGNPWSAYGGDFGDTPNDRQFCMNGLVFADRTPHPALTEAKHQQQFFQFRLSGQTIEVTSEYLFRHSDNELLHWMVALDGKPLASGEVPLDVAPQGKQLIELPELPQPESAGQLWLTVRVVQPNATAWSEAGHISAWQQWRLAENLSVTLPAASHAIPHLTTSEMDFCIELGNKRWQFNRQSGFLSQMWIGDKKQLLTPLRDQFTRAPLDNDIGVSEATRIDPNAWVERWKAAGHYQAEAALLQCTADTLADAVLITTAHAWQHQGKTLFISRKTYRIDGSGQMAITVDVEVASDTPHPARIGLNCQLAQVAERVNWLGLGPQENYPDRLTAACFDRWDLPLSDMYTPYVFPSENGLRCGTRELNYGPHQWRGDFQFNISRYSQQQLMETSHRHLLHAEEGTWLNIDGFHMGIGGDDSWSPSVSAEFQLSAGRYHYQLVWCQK

As for `CC(C(=O)N1CCN(c2ccc(Cl)cc2)CC1)c1ncc(C(F)(F)F)cc1Cl` (centres undefined), in assay [1], the IC50 was 3.65 µM (active).
`COc1ccc(C(=O)/C=C/C(=O)N(CC(=O)NC2CCCCC2)CC2CCCO2)c(O)c1` (centres undefined): the figures for the EC50 in “cells [2]”, on Beta-galactosidase and in the assay “cells [4]” were > 350 µM (not active), > 40 µM (inactive) and 34.3 µM (active), respectively. Also, the IC50 in assay [3] is 5.35 µM (active); with CHO, 1.84 µM (active); at Beta Lactamase [6], 23.3 µM (inactive); in assay [7] it was 2.17 µM (active); on Beta Lactamase [8], 19.9 µM (inactive). Moreover, the AC50 in [5] was 4.01 µM (active).
As to `Cc1cc(N2CCN(C(=O)c3ccco3)CC2)n2nc(C)c(-c3ccc(Cl)cc3)c2n1`, the EC50 in assay [9] is 17.7 µM (inactive); in assay [10], 28.1 µM (inactive).
Turning to `COc1cccc2cc(-c3nnc(-c4ccccc4)o3)c(=O)oc12`, the EC50 in [11] is 70.4 µM (active); in assay [13] it was > 53 µM (inactive). The IC50 was < 0.368 µM (active) in assay [12] and 0.675 µM (active) in assay [14].
As for `Cc1ccc(NC(=O)C=NOCC(=O)Nc2cc(C)cc(C)c2)cc1`, the figures for the IC50 in [15], in assay [16] and in assay [17] were 119 µM (inactive), 83.3 µM (inactive) and 8.66 µM (active), respectively.
